US20080108633A1, “Use 540” (AstraZeneca AB, priority 2006, published 2008)
pIC50: −log10 of the molar value. Values belong to the molecule of their own block, whether it stands above or below them.

What was measured:
[1] = test system: carrageenan-induced monoarthritis in rat; assay: Monoarthritis induced by carrageenan, Paw Print setup (hindpaw weight-bearing, "Walking pain"); format: in vivo; conditions: for difference in weight bearing between the hind paws: three hours after carrageenan (two hours after administration), vehicle group 30.2±3.2%, mean ±SEM, n=8
Procedure: The compounds used according to the invention when given by systemic administration to mice or rats, specifically reduce pain in the rat carrageenan test as described by Tonussi and Ferreira (Pain 1992, 48, 421-427). One single injection of carrageenan directly into the rat knee joint produces symptoms peaking at 3 to 4 hours and lasting for one to two days, and which are sensitive to treatment by most anti-nociceptive drugs (Tonussi and Ferreira, Pain 1992, 48, 421-427). Under isoflurane anesthesia, 50 μL of carrageenan (7.5 mg/mL) was injected into the left tibio-tarsal (ankle) joint from the dorsal side. This injection causes a localized inflammation increasing to a maximum between 4 h to 8 h after induction, after which it gradually decreases, and the animals display decreased weight bearing on and guarding of the limb. The Paw Print walkway consists of a 100×10 cm path with an access point at one short end and an exit at the other, and the rats are trained to make a swift, continuous passage. The walkway has a glass floor where light is projected into one long edge via fiber optics. Projecting the light in this fashion allows for virtually complete internal reflection within the glass floor. Only where an object touches the glass, such as the placement of a rat paw, light is scattered at the point of contact and produces an illuminated print (Betts, Duckworth, Eng. Med. 1978, 7, 223-228) that is recorded by a wide-angle camera placed under the walkway. The light intensity (range 0-255) of the illumination depends on the degree of contact against the floor and increases with the applied pressure (Clarke, Physiology & Behavior 1995, 58, 415-419). The Paw Print setup is a modified version of the CatWalk introduced by […], van Laar, Veldhuis, Gispen (J. Neurotrauma 2001, 18, 187-201), and has a computerized gait detection algorithm extracting several parameters pertaining to the rat's gait pattern and weight-bearing. The animals were trained to cross the walkway twice, one and two days before induction of monoarthritis. Recordings were subsequently made on the day of testing, immediately before, and three and five hours after carrageenan injection, corresponding to two and four hours after per oral administration of test compound. The following parameters were used for analysis: Weight-bearing per paw=The total sum of maximum light intensities for all pixels in the print of one paw is multiplied by the number of pixels of the print area. A paw placement consists of a number of pixels with light intensity above a certain threshold value (80 in this study). During the time course of one paw placement, a maximum value of light intensity is recorded for each pixel. Based on the weight-bearing results, the Paw Print algorithm chooses the median print per paw in one walkway crossing. The median weight-bearing of each paw constitutes a percentage of the sum of all four paws' median weight-bearing results. The difference in percent weight-bearing between the two hind paws is shown (“Walking pain”). The test compounds were administered 60 min after induction of monoarthritis. […] Results were analysed using 1-Way ANOVA followed by Newman-Keuls for comparison between treatment groups for data obtained at each time-point after administration. The level of significance was set at p<0.05 (SigmaStat® 2.03).

human Trk A kinase = molecular target: T1, human Trk A kinase (Homo sapiens, UniProt P04629); assay: Trk A kinase assay (Alphascreen); format: biochemical; conditions: 70 μM ATP, 20 minutes, room temperature
T1 construct: HIS; made in house; host or cells: SF9 cells
T1 sequence (P04629 442-796): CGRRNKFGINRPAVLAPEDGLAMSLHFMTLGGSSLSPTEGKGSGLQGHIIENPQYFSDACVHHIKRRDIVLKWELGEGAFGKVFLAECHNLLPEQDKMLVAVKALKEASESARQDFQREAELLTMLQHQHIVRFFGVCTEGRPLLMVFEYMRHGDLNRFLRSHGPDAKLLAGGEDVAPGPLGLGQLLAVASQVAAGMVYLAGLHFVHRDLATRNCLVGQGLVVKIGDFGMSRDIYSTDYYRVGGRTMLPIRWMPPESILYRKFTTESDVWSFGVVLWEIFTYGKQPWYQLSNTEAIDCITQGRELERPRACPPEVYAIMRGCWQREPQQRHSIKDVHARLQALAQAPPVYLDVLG
Procedure: After incubation of the kinase with a biotinylated substrate and adenosine triphosphate (ATP) for 20 minutes at room temperature, the kinase reaction was stopped by the addition of 30 mM ethylenediaminetetraacetic acid (EDTA). The reaction was performed in 384 well microtitre plates and the reaction products were detected with the addition of strepavidin coated Donor Beads and phosphotyrosine-specific antibodies coated Acceptor Beads using the EnVision Multilabel Plate Reader after an overnight incubation at room temperature.

Compound: CC(C)Oc1cc(Nc2nc(N[C@@H](C)c3ccc(F)cn3)ncc2Cl)n[nH]1 [5-Chloro-N^2-[(1S)-1-(5-fluoropyridin-2-yl)ethyl]-N^4-(5-isopropoxy-1H-pyrazol-3-yl)pyrimidine-2,4-diamine]
difference in weight bearing between the hind paws ([1]; 30 μmol/kg per oral): 9.2±4.0%
difference in weight bearing between the hind paws ([1]; 120 μmol/kg per oral): 14.9±4.4%
effect on the inflammatory pain induced by intra-articular ankle injection of carrageenan ([1]; all doses (30 μmol/kg, 60 μmol/kg p.o.)): significant effect
hindpaw weight distribution compared to the vehicle group ([1]; all three doses 30, 60 and 120 μmol/kg per oral, both at two and four hours after administration, p<0.05): significantly reduced
dose dependence of the effect on hindpaw weight distribution ([1]; dose interval tested, 30-120 μmol/kg per oral): no apparent dose dependence

pIC50 (human Trk A kinase): 8.30
Compound: C[C@H](Nc1ncc(Br)c(Nc2cc(C3CC3)[nH]n2)n1)c1ccc(F)cn1 [(S)-5-Bromo-N^4-(5-cyclopropyl-1H-pyrazol-3-yl)-N^2-(1-(5-fluoropyridin-2-yl)ethyl)pyrimidine-2,4-diamine]

Compound: C[C@H](Nc1ncc(Cl)c(Nc2cc(C3CC3)[nH]n2)n1)c1ccc(F)cn1 [(S)-5-Chloro-N^4-(5-cyclopropyl-1H-pyrazol-3-yl)-N^2-(1-(5-fluoropyridin-2-yl)ethyl)pyrimidine-2,4-diamine]
pIC50 (human Trk A kinase): 8.10

pIC50 (human Trk A kinase): 8.00
Compound: C[C@H](Nc1ncc(F)c(Nc2cc(C3CC3)[nH]n2)n1)c1ccc(F)cn1 [(S)-5-Fluoro-N^4-(5-cyclopropyl-1H-pyrazol-3-yl)-N^2-(1-(5-fluoropyridin-2-yl)ethyl)pyrimidine-2,4-diamine]
